Data: US12569465B2, “Method for activating follicles by means of using small-molecule compound, and preparation thereof” (TSINGTAO A-SMART MEDICAL TECHNOLOGY CO., LTD., priority 2020, dated 2026)

Key:
[1] = system: PD2 mouse ovaries (primordial follicles); experiment: In vitro culture of PD2 mouse ovaries, follicle counting; format: cell-based; details: VCD 1-1000 nM on first day of culture, then 3 days normal medium, compared with control group
From the text: (§1) Neonatal 2-day (PD2) or 12-day (PD12) C57bl/6 mice (provided by Shandong University Experimental Animal Center) were executed by decapitation and the ovaries and surrounding tissues were dissected and separated under a dissecting microscope, and the excised ovaries were placed in Leibovitz's L-15 medium (containing 10% fetal bovine serum+0.5% penicillin+0.5% streptomycin). The adipose tissue was dissected and separated. The separated ovaries were washed three times in PBS.
(§2) Configure ovarian medium: 1 mg/ml bovine serum albumin (BSA, Cat #A4161-1G, Sigma), 1 mg/ml AbluMAX II Lipid-Rich BSA (Cat #11021029, Gibco), 5% Insulin-Transferrin-Selenium (ITS-G) (Cat #41400-045, Gibco), 0.5% Penicillin+0.5% Streptomycin and 100 nM VCD were added into DMEM/F12 (Cat #11039-021, Gibco) medium. The prepared medium was mixed and added to a six-well plate with 1.5 ml of medium per well. A sieve (Cat #PICMORG50, Millipore) was put on the medium and placed in the incubator to preheat.
(§3) The separated ovaries were transferred to the ovarian medium with a pipette, washed three times and placed on the upper sieve of the pre-warmed medium. A drop of medium was added around the ovaries in the upper sieve to keep the area around the ovaries moist. The six-well plates were placed in a 37° C., 5% CO2 incubator for four consecutive days, and the lower layer of medium was changed daily. […]

[2] = system: aromatase; experiment: Aromatase expression in primary mouse granulosa cells; format: cell-based; details: PD20 primary granulosa cells; VCD 1-1000 nM, 24 h
From the text: (§4) anti-rabbit aromatase (Cat #NBP1-45360, Novus, 1:2000), anti-rabbit phosphor-AKT (Serine 473) (D9E) (Cat #4060, Cell Signaling, 1:500), anti-rabbit phosphor-FoxO1 (Threonine 24)/FoxO3a (Threonine 32) (Cat #9464, Cell Signaling, 1:500), anti-rabbit phosphor-P-S6 (Serine 235/236) (Cat #4858, Cell Signaling, 1:1000), anti-rabbit phosphor-P-S6 (Serine 240/244) (Cat #2215, Cell Signaling, 1:1000), anti-rabbit phosphor-P70S6k (Threonine 389) (Cat #9205, Cell Signaling, 1:1000), anti-rabbit (Cat #7074S, CST) or anti-mouse (Cat #7076S, CST).
Granulosa cells were isolated from the ovaries of PD20 mice according to the method described by Reddy P et al, Science 2008, 319(5863):611-613 and Liu Y X et al Biol Reprod 1986, 35(1):27-36, from which primary granulosa cell lines were obtained. They were treated with different concentrations of VCD (0, 1 nM, 10 nM, 100 nM, 1000 nM) for 24 h, using 50 ng/ml FSH as control.

[3] = system: PI3K-Akt pathway; experiment: Western blot for phosphorylation of proteins associated with follicle activation in the ovary; format: cell-based; details: PD2 mouse ovaries; 10 nM VCD for 2-3 min in vitro
Protocol: PD2 mice were dissected in autopsy solution (Leibovitz's L-15 medium, […], Gibco; +10% fetal bovine serum (FBS)) after execution, washed twice in ovarian medium and incubated in ovarian medium. After incubation in medium with or without VCD for 3 min. ovarian tissue was collected and lysed in RIPA lysis solution (Cat #89900, Thermo) for digestion. Proteins were denatured and separated by SDS PAGE and transferred to PVDF membranes (Millipore). The membranes were incubated with primary antibodies followed by incubation with HRP-conjugated secondary antibodies and the bands were examined using an enhanced chemiluminescence detection kit (Bio-Rad).
as §4
Two-day-old (PD2) mouse ovaries were isolated and cultured in vitro according to the method described in Example 1. […]

[4] = system: KGN cells; experiment: Estradiol (E2) levels in KGN cell culture supernatants (ELISA); format: cell-based, human; details: 24 h, versus control group
Protocol: KGN cell supernatants were collected after 24 hours of cell culture for the detection of E2 levels. The procedure of the assay followed the instructions of the E2 Assay Kit (Human Estradiol (E2) ELISA Kit, Cat #KAQ0621, Invitrogen).
(§5) Human-derived granulocyte-like cell line KGN (provided by Prof. Toshihiko Yanase, Fukuoka University, Japan) was cultured in DMEM/F12 medium. KGN were treated with different concentrations of VCD (0, 1 nM, 10 nM, 100 nM, 1000 nM) for 24 h, using 50 ng/ml FSH as control.

[5] = system: aromatase; experiment: Aromatase expression in KGN cells; format: cell-based, human; details: VCD 1-1000 nM, 24 h
From the text: as §4, §5

[6] = system: PD12 C57bl/6 female mice ovaries; experiment: Follicle development in neonatal mice in vivo; set-up: species or system mouse; details: 20 or 160 mg/kg intraperitoneal, 5 consecutive days, compared to saline control
Protocol: PD12 C57bl/6 mice in the same litter were divided into experimental and control groups according to body weight. The experimental mice were weighed and given either 20 mg/kg or 160 mg/kg of VCD by intraperitoneal injection, while the control mice were given the same volume of saline. After […] of continuous administration, the mice were executed and the ovaries were dissected to separate the adipose tissue under the microscope and fixed in 4% PFA. Dehydrated sections were used to observe and count the development of follicles in the ovaries at different times.
According to the method described in Example 1, the same litter of PD12 C57bl/6 female mice was divided into experimental and control groups according to body weight and given 20 mg/kg or 160 mg/kg of VCD by intraperitoneal injection, while the control mice were given the same volume of saline. Each group (N=6) was administered for 5 consecutive days, and then the mice were executed and the collected ovaries were stained to observe the morphology as shown in FIG. 3A (yellow arrows indicate early sinus follicles and red arrows indicate sinus follicles).

[7] = system: PD12 mouse ovaries (secondary follicles); experiment: In vitro culture of PD12 mouse ovaries, secondary follicle counting; format: cell-based; details: 4 days with VCD 1-1000 nM, compared to control group
From the text: as §1, §2, §3

[8] = system: 10-12 month old C57bl/6 ovaries; experiment: Ovulation stimulation experiment in old mice; format: in vivo, mouse; details: 80 mg/kg intraperitoneal, 5 days, then PMSG/hCG
Protocol: 10-12 month old C57bl/6 […] were divided into experimental and control groups according to body weight, and the experimental group was weighed and injected intraperitoneally with 80 mg/kg of VCD, while the control group was given the same volume of saline. After 5 days of continuous administration, 5 units of PMSG were injected to the experimental group and the control group, and 10 IU of hCG was injected 48 hours later to induce secondary ovulation. Mice were executed 16 hours after hCG injection, and both oviducts were collected and placed in M2 dissecting solution (Cat #M7167, Sigma), and the oocyte-granulosa cell complexes were seen when cutting the dilated oviducts under a dissecting microscope. The granulosa cell complexes from each mouse were transferred to a droplet of hyaluronidase (Cat #90101, Fujifilm Irvine Scientific) and the number of eggs per mouse was counted under a microscope after the granulosa cells around the oocytes had been digested.
According to the method described in Example 1, 10-12 month old C57bl/6 […] were divided into experimental and control groups according to their body weight, and the experimental group was weighed and injected intraperitoneally with 80 mg/kg of VCD, while the control group was given the same volume of saline. […]

[9] = system: primordial and primary follicles; details: rodents; prior studies; cited from earlier work

Structure (SMILES): C1CC2OC2CC1C1CO1 (stereo not shown) [VCD, 4-vinylcyclohexene diepoxide]
- number of primordial follicles and early primary follicles [1]: significantly increased
- expression level of aromatase in mouse granulosa cells [2]: significantly increased
- activation of PI3K-Akt pathway (phosphorylation of involved proteins, Western blot) [3]: significantly activate
- level of estrogen (E2) in cell supernatant [4]: significantly higher
- expression level of aromatase in KGN [5]: significantly increased
- follicles close to the preovulatory stage in the ovaries [6]: more follicles close to the preovulatory stage
- number of secondary follicles [7]: significantly increased
- follicle counts (sinus follicles, corpus luteum) in ovaries [8]: more sinus follicles as well as newly formed corpus luteum
- MII oocytes ovulated ([8]; versus saline control): more oocytes
- ovotoxicity to follicles [9]: induces atretic degeneration of primordial and primary follicles
